Source: patent publication US4330553A, “7-Oxo-PGI2 -derivatives and process for the preparation thereof and pharmaceutical compositions containing same” (Chinoin Gyogyszer es Vegyeszeti Termekek Gyara R.T., priority 1979, dated 1982)
Values after ≈ are worked out from the molar mass of the structure shown. Where a name gives a salt, the structure may show the parent alone. Read-outs that look alike come from different tables or passages of the source.

Assays:
thrombocytes = experiment: Thrombocyte aggregation inhibiting activity in human plasma enriched with thrombocytes (aggregation induced with ADP or collagen); type: cell-based
Excerpt: ID50 concentrations in case of aggregation generated with ADP and collagen resp. in plasma enriched with thrombocytes (PRB) isolated from human blood are as disclosed hereinbelow. As a comparison ID50 concentration values obtained with PGI2 sodium salt under the same test conditions are given.

[1] = acidic or neutral medium; decomposes to 6-keto-PGF1α; cited from earlier work
[2] = aggregation induced with ADP, read-out: ID50, thrombocyte aggregation inhibiting activity, ADP
[3] = aggregation induced with collagen, read-out: ID50, thrombocyte aggregation inhibiting activity, collagen

Compound | IC50 (thrombocytes; [2]) | IC50 (thrombocytes; [3]) | stability of PGI2 [1]
CCCCC[C@H](O)/C=C/[C@@H]1[C@H]2C(=O)/C(=C/CCCC(=O)OC)O[C@H]2C[C@H]1O [7-Oxo-PGI2-methyl ester, 7-Oxo-PGI2-methylester] | 0.1 to 0.2 µg/mL (≈ 0.263 to 0.526 µM) | 0.05 µg/mL (≈ 0.131 µM) | 
CCCCC[C@H](O)/C=C/[C@@H]1[C@H]2C/C(=C/CCCC(=O)O)O[C@H]2C[C@H]1O [PGI2] |  |  | immediately decomposes
CCCCC[C@H](O)/C=C/[C@@H]1[C@H]2C/C(=C/CCCC(=O)O)O[C@H]2C[C@H]1O [Sodium salt of PGI2, reference compound] | 0.001 to 0.002 µg/mL | 0.001 to 0.002 µg/mL | 
CCCCC[C@H](O)/C=C/[C@@H]1[C@H]2C(=O)/C(=C/CCCC(=O)O)O[C@H]2C[C@H]1O [Sodium salt of 7-oxo-PGI2] | 0.015 µg/mL | 0.08 µg/mL | 
